Data on twelve compounds can be found in patent US8735414B2 (priority 2009, dated 2014).

The assay concerns bicistronic HCV replicon (replicon RNA, GenBank Accession No. AJ242654). As to the kind of experiment: HCV Replicon Assay. It counts as cell-based. The following applies: Hepatitis C virus, 72 h, read-out: Replicon IC50.
Consider `N#Cc1c(-c2ccc(S(=O)(=O)NC(CF)CF)cn2)n(CC2CC2)c2cc(CC(F)F)ccc12` [compound 616, 6-[3-cyano-1-(cyclopropylmethyl)-6-(2,2-difluoroethyl)-1H-indol-2-yl]-N-(1,3-difluoropropan-2-yl)pyridine-3-sulfonamide], for which the IC50 was under 500 nM.
Then `CCc1cc2c(cc1F)c(C#N)c(-c1ccc(S(=O)(=O)N[C@H](C)C(F)(F)F)cn1)n2-c1ccccn1` [compound 879, 6-[3-cyano-6-ethyl-5-fluoro-1-(pyridin-2-yl)-1H-indol-2-yl]-N-[(2R)-1,1,1-trifluoropropan-2-yl]pyridine-3-sulfonamide], with under 500 nM; and `C[C@H](NS(=O)(=O)c1ccc(-c2c(C#N)c3ccc(CF)cc3n2C2CCC2)nc1)C1CC1` [compound 317, 6-[3-cyano-1-cyclobutyl-6-(fluoromethyl)-1H-indol-2-yl]-N-[(1S)-1-cyclopropylethyl]pyridine-3-sulfonamide], with under 500 nM; and `C[C@H](NS(=O)(=O)c1ccc(-c2c(C#N)c3ccc(CC(F)F)cc3n2CC2CC2)nc1)C(F)(F)F` [compound 618, 6-[3-cyano-1-(cyclopropylmethyl)-6-(2,2-difluoroethyl)-1H-indol-2-yl]-N-[(2S)-1,1,1-trifluoropropan-2-yl]pyridine-3-sulfonamide], with under 500 nM.
In the case of `COC(=O)c1c(-c2ccc(S(=O)(=O)NC(C)(C)C(F)(F)F)cn2)n(C2CCCC2)c2cc(C)c(F)cc12` [compound 754, methyl 1-cyclopentyl-5-fluoro-6-methyl-2-{5-[(1,1,1-trifluoro-2-methylpropan-2-yl)sulfamoyl]pyridin-2-yl}-1H-indole-3-carboxylate] it was under 500 nM; in that of `Cc1cc2c(cc1F)cc(-c1ccc(S(=O)(=O)N[C@@H](C)C(F)(F)F)cn1)n2-c1ccoc1` [compound 988, 6-[5-fluoro-1-(furan-3-yl)-6-methyl-1H-indol-2-yl]-N-[(2S)-1,1,1-trifluoropropan-2-yl]pyridine-3-sulfonamide], under 500 nM; in that of `CCc1cc2c(cc1F)c(C(N)=O)c(-c1ccc(S(=O)(=O)N[C@@H](C)C(F)(F)F)cn1)n2-c1ccncn1` [compound 1041, 6-ethyl-5-fluoro-1-(pyrimidin-4-yl)-2-(5-{[(2S)-1,1,1-trifluoropropan-2-yl]sulfamoyl}pyridin-2-yl)-1H-indole-3-carboxamide], under 500 nM.
Then `C=Cc1cc2c(cc1F)c(C#N)c(-c1ccc(S(=O)(=O)N[C@@H](C)C(F)(F)F)cn1)n2-c1ncccn1` [compound 908, 6-[3-cyano-6-ethenyl-5-fluoro-1-(pyrimidin-2-yl)-1H-indol-2-yl]-N-[(2S)-1,1,1-trifluoropropan-2-yl]pyridine-3-sulfonamide], with under 500 nM; and `CCc1cc2c(cc1F)c(C(N)=O)c(-c1ccc(S(=O)(=O)N[C@@H](C)C(F)(F)F)cn1)n2-c1ccc(C)cn1` [compound 1039, 6-ethyl-5-fluoro-1-(5-methylpyridin-2-yl)-2-(5-{[(2S)-1,1,1-trifluoropropan-2-yl]sulfamoyl}pyridin-2-yl)-1H-indole-3-carboxamide], with 500 to 2000 nM; and `CC(C)NS(=O)(=O)c1cnc(-c2c(C#N)c3ccc(CF)cc3n2C2CCC2)nc1` [compound 315, 2-[3-cyano-1-cyclobutyl-6-(fluoromethyl)-1H-indol-2-yl]-N-(propan-2-yl)pyrimidine-5-sulfonamide], with under 500 nM.
For the compound `C[C@H](NS(=O)(=O)c1ccc(-c2c(C#N)c3ccc(C4CC4)cc3n2C2CCCC2)nc1)C1CC1` [compound 433, 6-(3-cyano-1-cyclopentyl-6-cyclopropyl-1H-indol-2-yl)-N-[(1S)-1-cyclopropylethyl]pyridine-3-sulfonamide], the IC50 is under 500 nM.
Then `CNC(=O)c1c(-c2ccc(S(=O)(=O)N[C@@H](C)C(F)(F)F)cn2)n(C2CCC2)c2cc(C)c(F)cc12` [compound 801, 1-cyclobutyl-5-fluoro-N,6-dimethyl-2-(5-{[(2S)-1,1,1-trifluoropropan-2-yl]sulfamoyl}pyridin-2-yl)-1H-indole-3-carboxamide], with under 500 nM.
